Source: US12649733B2, “3,6-diamino-pyridazin-3-yl derivatives, pharmaceutical compositions containing them and their uses as pro-apoptotic agents” (LES LABORATOIRES SERVIER, priority 2019, dated 2026)

Legend:
Bcl-xL protein = molecular target: T1, Bcl-xL protein (Homo sapiens, UniProt Q07817, N197C); experiment: Fluorescence quenching assay (PUMA peptide displacement); assay type: binding; conditions: 1 nM protein, 400 nM peptide, 2 hours at 23° C.; KI determined from IC50
T1 construct: (2-197)[N197C]; His-His (two His8 stretches joined by a Gly/Ala/Ser/Thr linker)
How it was run: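 Compounds were tested as an 11-point series in pH 7.4 HEPES/NaCl/Tween buffer with 5% DMSO, 2 h at 23 °C. Cy5-tagged Bcl-xL(2-197, N197C) at 1 nM and quencher-tagged PUMA peptide at 400 nM were used. Competitive binders restore fluorescence (620/680 nm), and IC50 values were converted to KI.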

H146 cells = experiment: H146 cell viability, MTT assay; assay type: cell-based; conditions: Homo sapiens, NCI-H146, 48 h, 48 h exposure
How it was run: (§1)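 Viability read by MTT reduction (OD 540 nm after overnight SDS/HCl lysis) after 48 h compound treatment of cells in RPMI 1640/10% FBS. Triplicates at nine concentrations, 3.16-fold apart; four-parameter curve fitting yields IC50.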

MOLT-4 cells = experiment: MOLT-4 cell viability, MTT assay; assay type: cell-based; conditions: Homo sapiens, MOLT-4, 48 h, 48 h exposure
How it was run: as §1

T1 sequence (Q07817 2-197 N197C): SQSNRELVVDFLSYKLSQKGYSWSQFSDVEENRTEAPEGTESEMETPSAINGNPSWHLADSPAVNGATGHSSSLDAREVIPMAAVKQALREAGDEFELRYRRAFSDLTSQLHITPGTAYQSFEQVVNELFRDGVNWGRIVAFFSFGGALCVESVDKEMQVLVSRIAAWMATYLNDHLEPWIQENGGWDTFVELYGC

Row | Structure (SMILES) | Ki (Bcl-xL protein) | IC50 (H146 cells) | IC50 (MOLT-4 cells)
1 | CNCC#Cc1ccc(OCCCc2sc(N(CCCC(O)CN(C)C)c3cc(C)c(Nc4nc5ccccc5s4)nn3)nc2C(=O)O)c(F)c1 (stereo not drawn) [Example 193, 2-[[6-(1,3-Benzothiazol-2-ylamino)-5-methyl-pyridazin-3-yl]-[5-(dimethylamino)-4-hydroxy-pentyl]amino]-5-[3-[2-fluoro-4-[3-(methylamino)prop-1-ynyl]phenoxy]propyl]thiazole-4-carboxylic acid] | 0.0013 nM | 65 nM | 92.5 nM
2 | CNCCCCCN(c1cc(C)c(Nc2nc3ccccc3s2)nn1)c1nc(C(=O)O)c(CCCOc2ccc(C#CCN(C)C)cc2F)s1 [Example 194, 2-[[6-(1,3-Benzothiazol-2-ylamino)-5-methyl-pyridazin-3-yl]-[5-(methylamino)pentyl]amino]-5-[3-[4-[3-(dimethylamino)prop-1-ynyl]-2-fluoro-phenoxy]propyl]thiazole-4-carboxylic acid] | 0.0032 nM | 27 nM | 129 nM
3 | Cc1cc(N(CCCCCNCCCN2CCN(C)CC2)c2nc(C(=O)O)c(CCCOc3ccc(C#CCN(C)C)cc3F)s2)nnc1Nc1nc2ccccc2s1 [Example 195, 2-[[6-(1,3-Benzothiazol-2-ylamino)-5-methyl-pyridazin-3-yl]-[5-[3-(4-methylpiperazin-1-yl)propylamino]pentyl]amino]-5-[3-[4-[3-(dimethylamino)prop-1-ynyl]-2-fluoro-phenoxy]propyl]thiazole-4-carboxylic acid] | 0.0018 nM | 525 nM | 529 nM
4 | Cc1cc(N(C)c2nc(C(=O)O)c(CCCOc3ccc(C#CCN4CCOCC4)cc3F)s2)nnc1Nc1nc2ccccc2s1 [Example 198, 2-[[6-(1,3-Benzothiazol-2-ylamino)-5-methyl-pyridazin-3-yl]-methyl-amino]-5-[3-[2-fluoro-4-(3-morpholinoprop-1-ynyl)phenoxy]propyl]thiazole-4-carboxylic acid] | 0.0073 nM | 1420 nM | 1.59 nM
5 | CNCC#Cc1ccc(OCCCc2sc(N(CCCCCCN(C)C)c3cc(C)c(Nc4nc5ccccc5s4)nn3)nc2C(=O)O)c(F)c1 [Example 199, 2-[[6-(1,3-Benzothiazol-2-ylamino)-5-methyl-pyridazin-3-yl]-[6-(dimethylamino)hexyl]amino]-5-[3-[2-fluoro-4-[3-(methylamino)prop-1-ynyl]phenoxy]propyl]thiazole-4-carboxylic acid] | 0.001 nM | 64.1 nM | 25.9 nM
6 | CNCC#Cc1ccc(OCCCc2sc(N(CCCN(C)C)c3cc(C)c(Nc4nc5ccccc5s4)nn3)nc2C(=O)O)c(F)c1 [Example 200] | 0.0077 nM | 115 nM | 695 nM
7 | CNCC#Cc1ccc(OCCCc2sc(N(CC[N+](C)(C)C)c3cc(C)c(Nc4nc5ccccc5s4)nn3)nc2C(=O)[O-])c(F)c1 [Example 201, 2-[[6-(1,3-Benzothiazol-2-ylamino)-5-methyl-pyridazin-3-yl]-[2-(trimethylammonio)ethyl]amino]-5-[3-[2-fluoro-4-[3-(methylamino)prop-1-ynyl]phenoxy]propyl]thiazole-4-carboxylate] | 0.0019 nM | 75.3 nM | 417 nM
8 | Cc1cc(N(C)c2nc(C(=O)O)c(CCCOc3ccc(C#CCN4CCCC4)cc3F)s2)nnc1Nc1nc2ccccc2s1 [Example 203, 2-[[6-(1,3-Benzothiazol-2-ylamino)-5-methyl-pyridazin-3-yl]-methyl-amino]-5-[3-[2-fluoro-4-(3-pyrrolidin-1-ylprop-1-ynyl)phenoxy]propyl]thiazole-4-carboxylic acid] | 0.0022 nM | 3.9 nM | 0.753 nM
9 | Cc1cc(N(C)c2nc(C(=O)O)c(CCCOc3ccc(C#CCN4CCCCC4)cc3F)s2)nnc1Nc1nc2ccccc2s1 [Example 204, 2-[[6-(1,3-Benzothiazol-2-ylamino)-5-methyl-pyridazin-3-yl]-methyl-amino]-5-[3-[2-fluoro-4-[3-(1-piperidyl)prop-1-ynyl]phenoxy]propyl]thiazole-4-carboxylic acid] | 0.006 nM | 7.3 nM | 0.703 nM
10 | Cc1cc(N(C)c2nc(C(=O)O)c(CCCOc3ccc(C#CC(C)N(C)C)cc3F)s2)nnc1Nc1nc2ccccc2s1 (stereo not drawn) [Example 205, 2-[[6-(1,3-Benzothiazol-2-ylamino)-5-methyl-pyridazin-3-yl]-methyl-amino]-5-[3-[4-[3-(dimethylamino)but-1-ynyl]-2-fluoro-phenoxy]propyl]thiazole-4-carboxylic acid] | 0.0023 nM | ≤ 5.93 nM | 0.374 nM
11 | CNCC#Cc1ccc(OCCCc2sc(N(CCN(C)C)c3cc(C)c(Nc4nc5ccccc5s4)nn3)nc2C(=O)O)c(F)c1 [Example 207, 2-[[6-(1,3-Benzothiazol-2-ylamino)-5-methyl-pyridazin-3-yl]-[2-(dimethylamino)ethyl]amino]-5-[3-[2-fluoro-4-[3-(methylamino)prop-1-ynyl]phenoxy]propyl]thiazole-4-carboxylic acid] | 0.0037 nM | 1080 nM | 3280 nM
12 | Cc1cc(N(CCCC(O)C[N+](C)(C)C)c2nc(C(=O)[O-])c(CCCOc3ccc(C#CCN(C)C)cc3F)s2)nnc1Nc1nc2ccccc2s1 (stereo not drawn) [Example 211, 2-[[6-(1,3-Benzothiazol-2-ylamino)-5-methyl-pyridazin-3-yl]-[4-hydroxy-5-(trimethylammonio)pentyl]amino]-5-[3-[4-[3-(dimethylamino)prop-1-ynyl]-2-fluoro-phenoxy]propyl]thiazole-4-carboxylate] | 0.0065 nM | 66.8 nM | 484 nM
13 | CNCC#Cc1ccc(OCCCc2sc(N(CCCCC[N+](C)(C)CCCS(=O)(=O)[O-])c3cc(C)c(Nc4nc5ccccc5s4)nn3)nc2C(=O)O)c(F)c1 [Example 212, 3-[5-[[6-(1,3-Benzothiazol-2-ylamino)-5-methyl-pyridazin-3-yl]-[4-carboxy-5-[3-[2-fluoro-4-[3-(methylamino)prop-1-ynyl]phenoxy]propyl]thiazol-2-yl]amino]pentyl-dimethyl-ammonio]propane-1-sulfonate] | 0.001 nM | 3240 nM | 2880 nM
14 | CNCC#Cc1ccc(OCCCc2sc(N(CCCCCN(C)C)c3cc(C)c(Nc4nc5ccccc5s4)nn3)nc2C(=O)O)c(F)c1 [Example 213, 2-[[6-(1,3-Benzothiazol-2-ylamino)-5-methyl-pyridazin-3-yl]-[5-(dimethylamino)pentyl]amino]-5-[3-[2-fluoro-4-[3-(methylamino)prop-1-ynyl]phenoxy]propyl]thiazole-4-carboxylic acid] | 0.0015 nM | 72.8 nM | 93.6 nM
15 | Cc1cc(N(C)c2nc(C(=O)O)c(CCCOc3ccc(CCCN(C)C)cc3F)s2)nnc1Nc1nc2ccccc2s1 [Example 214, 2-[[6-(1,3-Benzothiazol-2-ylamino)-5-methyl-pyridazin-3-yl]-methyl-amino]-5-[3-[4-[3-(dimethylamino)propyl]-2-fluoro-phenoxy]propyl]thiazole-4-carboxylic acid] | 0.004 nM | 26.7 nM | 22.5 nM
16 | Cc1cc(N(CCCC(O)C[N+]23CCC(CC2)CC3)c2nc(C(=O)[O-])c(CCCOc3ccc(C#CCN(C)C)cc3F)s2)nnc1Nc1nc2ccccc2s1 (stereo not drawn) [Example 215, 2-[[6-(1,3-Benzothiazol-2-ylamino)-5-methyl-pyridazin-3-yl]-(4-hydroxy-5-quinuclidin-1-ium-1-yl-pentyl)amino]-5-[3-[4-[3-(dimethylamino)prop-1-ynyl]-2-fluoro-phenoxy]propyl]thiazole-4-carboxylate] | 0.0031 nM | 174 nM | 406 nM
17 | Cc1cc(N(CCCC(O)C[N+]23CCN(CC2)CC3)c2nc(C(=O)[O-])c(CCCOc3ccc(C#CCN(C)C)cc3F)s2)nnc1Nc1nc2ccccc2s1 (stereo not drawn) [Example 216, 2-[[5-(1-aza-4-azoniabicyclo[2.2.2]octan-4-yl)-4-hydroxy-pentyl]-[6-(1,3-benzothiazol-2-ylamino)-5-methyl-pyridazin-3-yl]amino]-5-[3-[4-[3-(dimethylamino)prop-1-ynyl]-2-fluoro-phenoxy]propyl]thiazole-4-carboxylate] | 0.004 nM | 222 nM | 146 nM
18 | Cc1cc(N(CCCC(O)C[N+]2(C)CCOCC2)c2nc(C(=O)[O-])c(CCCOc3ccc(C#CCN(C)C)cc3F)s2)nnc1Nc1nc2ccccc2s1 (stereo not drawn) [Example 217, 2-[[6-(1,3-Benzothiazol-2-ylamino)-5-methyl-pyridazin-3-yl]-[4-hydroxy-5-(4-methylmorpholin-4-ium-4-yl)pentyl]amino]-5-[3-[4-[3-(dimethylamino)prop-1-ynyl]-2-fluoro-phenoxy]propyl]thiazole-4-carboxylate] | 0.0041 nM | 86.2 nM | 180 nM
19 | Cc1cc(N(C)c2nc(C(=O)O)c(CCCOc3ccc(C#CCNCC[N+](C)(C)CCCS(=O)(=O)[O-])cc3F)s2)nnc1Nc1nc2ccccc2s1 [Example 218, 3-[2-[3-[4-[3-[2-[[6-(1,3-Benzothiazol-2-ylamino)-5-methyl-pyridazin-3-yl]-methyl-amino]-4-carboxy-thiazol-5-yl]propoxy]-3-fluoro-phenyl]prop-2-ynylamino]ethyl-dimethyl-ammonio]propane-1-sulfonate] | 0.0012 nM | 891 nM | 270 nM
